These molecules were tested on C57BL/6J mice (assay: Glucokinase activator in vivo screen (blood glucose after oral dosing)). Conditions: administered orally, 50 mg/kg, active = significant (p≦0.05) decrease in blood glucose vs vehicle at two consecutive time points.
Experimental: Glucokinase Activator in vivo Screen Protocol
C57BL/6J mice are orally dosed via gavage with Glucokinase (GK) activator at 50 mg/kg body weight following a two hour fasting period. Blood glucose determinations are made five times during the six hour post-dose study period.
Mice (n=6) are weighed and fasted for a two hour period prior to oral treatment. GK activators are formulated at 6.76 mg/ml in Gelucire vehicle (Ethanol:Gelucire44/14:PEG400q.s. 4:66:30 v/w/v. Mice are dosed orally with 7.5 μL formulation per gram of body weight to equal a 50 mg/kg dose. Immediately prior to dosing, a pre dose (time zero) blood glucose reading is acquired by snipping off a small portion of the animals tail (˜1 mm) and collecting 15 μL blood into a heparinized capillary tube for analysis. Following GK activator administration, additional blood glucose readings are taken at 1, 2, 4, and 6 hours post dose from the same tail wound. Results are interpreted by comparing the mean blood glucose values of six vehicle treated mice with six GK activator treated mice over the six hour study duration.
For CS(=O)(=O)c1ccc([C@@H](CC2CCCC2)C(=O)Nc2nc3ccccc3s2)cc1Cl [Example 19, N-Benzothiazol-2-yl-2(R)-(3-chloro-4-methanesulfonyl-phenyl)-3-cyclopentyl-propionamide], the “glucokinase activator in vivo activity” value was “excellent glucokinase activator in vivo activity”.
CS(=O)(=O)c1ccc(C(CC2CCCC2)C(=O)Nc2nc3ccccc3[nH]2)cc1Cl (stereo not drawn) [Example 20, N-(1H-Benzoimidazol-2-yl)-2-(3-chloro-4-methanesulfonyl-phenyl)-3-cyclopentyl-propionamide] was tested, and the “glucokinase activator in vivo activity” value was “excellent glucokinase activator in vivo activity”.
With CS(=O)(=O)c1ccc(C(CC2CCCC2)C(=O)Nc2ccc3ccccc3n2)cc1Cl (stereo not drawn) [Example 22, 2-(3-Chloro-4-methanesulfonyl-phenyl)-3-cyclopentyl-N-quinolin-2-yl-propionamide] the “glucokinase activator in vivo activity” value was “excellent glucokinase activator in vivo activity”.

From patent US6448399B1, “Fused heteroaromatic glucokinase activators” (Hoffmann-La Roche Inc., priority 2000, dated 2002)
